# Laboratory results reported in publication PMC10313921, “A living ex vivo platform for functional, personalized brain cancer diagnosis” (Cell Reports Medicine, 2023).
# Experiments:
# [1] = system: MG-I patient tumor tissue (WHO I meningioma); experiment: Drug screening of uncultured patient tumor tissue MG-I on OBSCs; type: cell-based; conditions: Homo sapiens, dose required to kill 90% of the tumor
# Description: (§1) Tumor cells were seeded onto OBSCs 2h after slicing as described above. One day after tumor seeding, six concentrations of each drug were diluted in the media underneath each culture insert, or XRad was applied using an X-Rad 320 Precision X-ray machine (n = 4 tumor foci per concentration; n ≥ 24 tumor foci per drug per cell line). Three days after treatment, the bioluminescence of live tumor cells was measured using an AMI optical imager (Spectral Instruments) and dose-response curves were generated. Tumor survival was normalized to day one tumor fluorescence and compared to an untreated control group.
# (§2) To engraft onto OBSCs, the cryopreserved/thawed or fresh brain tumor tissue was filtered through a 100 μm cell strainer. […] The viability of the patient tissue was measured by an AMI optical imaging system with the addition of 1.5 mg/mL luciferin underneath the culture insert. […]
# (§3) For DSS parameters 1–6, therapeutic windows were calculated by comparing OBSC toxicity and tumor response at the doses where tumor kill passed through the DSS parameter (Table S1 and S3). For DSS parameter 7, the therapeutic window was calculated by comparing the slopes through the tumor EC50 and the OBSC tox EC50. For DSS parameter 8, the therapeutic window was calculated by comparing the areas under tumor kill and OBSC tox curves. […]
# [2] = system: 7 cell lines (MB231Br, LN229, U373WT, U373KO, GBM8, MS21, PDIPG); experiment: Drug screening on OBSCs, summary over the panel of seven tumor lines; type: cell-based, human; conditions: for response / killing over the 7 cell lines: number of lines responding
# Description: Tumor cells (0.17 μL, 25,000 cells) were seeded onto OBSCs 2h after slicing, with one tumor seeded in the center of each hemisphere for a total of two tumor foci per OBSC. BSM was changed 24h after slicing. Fluorescence images were taken 0 h, 24 h, and 96 h post-seeding for normalization of tumor size. Bioluminescence readouts were also taken at 0 h, 24 h, and 96 h post seeding for assessment of cell viability. Luciferin was added underneath the culture insert and allowed to incubate for 10 min before bioluminescence measurement on an AMI optical imaging system.
# as §1
# Several weighted parameters were factored into an overall drug sensitivity score.
# (§4) For DSS parameters 1–6, therapeutic windows were calculated by comparing OBSC toxicity and tumor response at the doses where tumor kill passed through the DSS parameter (Table S1 and S3). For DSS parameter 7, the therapeutic window was calculated by comparing the slopes through the tumor EC50 and the OBSC tox EC50. For DSS parameter 8, the therapeutic window was calculated by comparing the areas under tumor kill and OBSC tox curves. Normalized therapeutic window ratios for DSS parameters 1–8 within each drug-tumor-OBSC interaction were calculated in the following manner: within each window, values ranged from +1 to −1, where values approaching +1 signify increasing tumor kill relative to normal tissue toxicity, and values approaching −1 indicate agents where tumors remained highly viable while toxicity to the normal OBSC tissue was elevated. DSS parameters 9–11 were determined based on the behavior of the tumor in response to the drug, as defined above.
# All individually weighed parameters were added together to generate the DSS. Overall DSS from 0 to 100 signify increasing efficacy in tumor kill relative to OBSC toxicity, while scores from 0 to −100 describe scenarios in which tumors thrive more effectively than OBSCs for a given treatment. Dose-response values were calculated via linear interpolation of raw data, not from best-fit curve equations.
# [3] = system: SE-I patient tumor tissue (WHO I subependymoma); experiment: Drug screening of uncultured patient tumor tissue SE-I on OBSCs; type: cell-based; conditions: Homo sapiens; for EC90: dose required to kill 90% of the tumor
# Description: as §1
# (§5) To engraft onto OBSCs, the cryopreserved/thawed or fresh brain tumor tissue was filtered through a 100 μm cell strainer. Each 50 mg of tissue was transfected with 1mL mcherry-FLuc Lentivirus at 1.5e7 vg/ml with 1μL polybrene for 4h at 37°C. After incubation, the brain tumor tissue was washed with PBS three times to remove the residual virus and reconstituted in PBS with a final volume of 150 μL. […] The viability of the patient tissue was measured by an AMI optical imaging system with the addition of 1.5 mg/mL luciferin underneath the culture insert. […]
# as §4, with “DSS parameters 9–11 were determined based on the behavior of the tumor in response to the drug, as defined above.” left out
# [4] = system: MMG-II patient tumor tissue (WHO grade II meningioma, multiple tumors); experiment: Drug screening of uncultured patient tumor tissue MMG-II on OBSCs; type: cell-based; conditions: Homo sapiens, dose required to kill 90% of the tumor
# Description: as §1, §5
# as §4, with “DSS parameters 9–11 were determined based on the behavior of the tumor in response to the drug, as defined above.” left out
# [5] = system: LBM patient tumor tissue (Stage III NSCLC adenocarcinoma); experiment: Drug screening of uncultured patient tumor tissue LBM on OBSCs; type: cell-based; conditions: Homo sapiens; for EC90: dose required to kill 90% of the tumor
# Description: as §1, §5
# as §4, with “DSS parameters 9–11 were determined based on the behavior of the tumor in response to the drug, as defined above.” left out
# [6] = system: GBM-MG patient tumor tissue (GBM w/ WHO I meningioma); experiment: Drug screening of uncultured patient tumor tissue GBM-MG on OBSCs; type: cell-based; conditions: Homo sapiens, dose required to kill 90% of the tumor
# Description: as §1, §2, §3
# [7] = system: ODDG patient tumor tissue (WHO grade III oligodendroglioma); experiment: Drug screening of uncultured patient tumor tissue ODDG on OBSCs; type: cell-based; conditions: Homo sapiens
# Description: as §1, §2, §3
# [8] = dose required to kill 50% of the tumor
compound,measurement,setting,value
Nc1ncn([C@@H]2O[C@H](CO)[C@@H](O)[C@H]2O)c(=O)n1 [Azacitidine],EC90,[1],> 10 µM
same,IC50,"[2]; Homo sapiens, read-out: IC50 values, range over the cell lines",200 to 400 µM
same,response / killing over the 7 cell lines,[2],7 of 7
same,EC90,[3],> 10 µM
N.N.O=C([O-])C1(C(=O)[O-])CCC1.[Pt+2] [Carboplatin],response / killing over the 7 cell lines,[2],robust response
COc1cc([C@@H]2c3cc4c(cc3[C@@H](O[C@@H]3O[C@@H]5CO[C@@H](C)O[C@H]5[C@H](O)[C@H]3O)[C@H]3COC(=O)[C@H]23)OCO4)cc(OC)c1O [Etoposide],response / killing over the 7 cell lines,[2],6 of 7
Nc1ccn([C@@H]2O[C@H](CO)[C@@H](O)C2(F)F)c(=O)n1 [Gemcitabine],EC90,[4],> 10 µM
O=NN(CCCl)C(=O)NC1CCCCC1 [Lomustine],response / killing over the 7 cell lines,[2],robust response
same,EC90,[5],> 10 µM
Cn1nnc2c(C(N)=O)ncn2c1=O [Temozolomide],EC90,[1],> 10 µM
same,"DSS scores, range among tumors",[2],−62 to 96
same,EC90,[6],> 10 µM
same,EC50,[3]; [8],> 100 µM
same,EC90,[3],> 10 µM
same,EC50,[7]; [8],> 100 µM
same,EC90,[7]; dose required to kill 90% of the tumor,> 10 µM
same,EC50,[5]; [8],> 100 µM
same,EC90,[5],> 10 µM
CC(=O)Nc1cccc(-n2c(=O)n(C3CC3)c(=O)c3c(Nc4ccc(I)cc4F)n(C)c(=O)c(C)c32)c1 [Trametinib],EC90,[4],> 10 µM
CC[C@]1(O)C[C@H]2CN(CCc3c([nH]c4ccccc34)[C@@](C(=O)OC)(c3cc4c(cc3OC)N(C=O)[C@H]3[C@@](O)(C(=O)OC)[C@H](OC(C)=O)[C@]5(CC)C=CCN6CC[C@]43[C@@H]65)C2)C1 [Vincristine],EC90,[4],> 10 µM
